Test results as given in ChEMBL document CHEMBL2150924, “Inhibition of NaV1.6 sodium channel currents by a novel series of 1,4-disubstituted-triazole derivatives obtained via copper-catalyzed click chemistry” (Bioorg Med Chem Lett, 2012).

Experiments:
[1] = molecular target: Sodium channel protein type 8 subunit alpha (Rattus norvegicus, UniProt O88420); assay: Inhibition of rat NaV1.6-mediated current expressed in human HEK293 cells by patch clamp assay; format: cell-based
[2] = molecular target: Sodium channel protein type 8 subunit alpha (Rattus norvegicus) (UniProt O88420); assay: Inhibition of rat NaV1.6-mediated current expressed in human HEK293 cells at 10 uM by patch clamp assay; format: cell-based
Sodium channel protein type 8 subunit alpha (Rattus norvegicus), sequence (O88420 whole entry): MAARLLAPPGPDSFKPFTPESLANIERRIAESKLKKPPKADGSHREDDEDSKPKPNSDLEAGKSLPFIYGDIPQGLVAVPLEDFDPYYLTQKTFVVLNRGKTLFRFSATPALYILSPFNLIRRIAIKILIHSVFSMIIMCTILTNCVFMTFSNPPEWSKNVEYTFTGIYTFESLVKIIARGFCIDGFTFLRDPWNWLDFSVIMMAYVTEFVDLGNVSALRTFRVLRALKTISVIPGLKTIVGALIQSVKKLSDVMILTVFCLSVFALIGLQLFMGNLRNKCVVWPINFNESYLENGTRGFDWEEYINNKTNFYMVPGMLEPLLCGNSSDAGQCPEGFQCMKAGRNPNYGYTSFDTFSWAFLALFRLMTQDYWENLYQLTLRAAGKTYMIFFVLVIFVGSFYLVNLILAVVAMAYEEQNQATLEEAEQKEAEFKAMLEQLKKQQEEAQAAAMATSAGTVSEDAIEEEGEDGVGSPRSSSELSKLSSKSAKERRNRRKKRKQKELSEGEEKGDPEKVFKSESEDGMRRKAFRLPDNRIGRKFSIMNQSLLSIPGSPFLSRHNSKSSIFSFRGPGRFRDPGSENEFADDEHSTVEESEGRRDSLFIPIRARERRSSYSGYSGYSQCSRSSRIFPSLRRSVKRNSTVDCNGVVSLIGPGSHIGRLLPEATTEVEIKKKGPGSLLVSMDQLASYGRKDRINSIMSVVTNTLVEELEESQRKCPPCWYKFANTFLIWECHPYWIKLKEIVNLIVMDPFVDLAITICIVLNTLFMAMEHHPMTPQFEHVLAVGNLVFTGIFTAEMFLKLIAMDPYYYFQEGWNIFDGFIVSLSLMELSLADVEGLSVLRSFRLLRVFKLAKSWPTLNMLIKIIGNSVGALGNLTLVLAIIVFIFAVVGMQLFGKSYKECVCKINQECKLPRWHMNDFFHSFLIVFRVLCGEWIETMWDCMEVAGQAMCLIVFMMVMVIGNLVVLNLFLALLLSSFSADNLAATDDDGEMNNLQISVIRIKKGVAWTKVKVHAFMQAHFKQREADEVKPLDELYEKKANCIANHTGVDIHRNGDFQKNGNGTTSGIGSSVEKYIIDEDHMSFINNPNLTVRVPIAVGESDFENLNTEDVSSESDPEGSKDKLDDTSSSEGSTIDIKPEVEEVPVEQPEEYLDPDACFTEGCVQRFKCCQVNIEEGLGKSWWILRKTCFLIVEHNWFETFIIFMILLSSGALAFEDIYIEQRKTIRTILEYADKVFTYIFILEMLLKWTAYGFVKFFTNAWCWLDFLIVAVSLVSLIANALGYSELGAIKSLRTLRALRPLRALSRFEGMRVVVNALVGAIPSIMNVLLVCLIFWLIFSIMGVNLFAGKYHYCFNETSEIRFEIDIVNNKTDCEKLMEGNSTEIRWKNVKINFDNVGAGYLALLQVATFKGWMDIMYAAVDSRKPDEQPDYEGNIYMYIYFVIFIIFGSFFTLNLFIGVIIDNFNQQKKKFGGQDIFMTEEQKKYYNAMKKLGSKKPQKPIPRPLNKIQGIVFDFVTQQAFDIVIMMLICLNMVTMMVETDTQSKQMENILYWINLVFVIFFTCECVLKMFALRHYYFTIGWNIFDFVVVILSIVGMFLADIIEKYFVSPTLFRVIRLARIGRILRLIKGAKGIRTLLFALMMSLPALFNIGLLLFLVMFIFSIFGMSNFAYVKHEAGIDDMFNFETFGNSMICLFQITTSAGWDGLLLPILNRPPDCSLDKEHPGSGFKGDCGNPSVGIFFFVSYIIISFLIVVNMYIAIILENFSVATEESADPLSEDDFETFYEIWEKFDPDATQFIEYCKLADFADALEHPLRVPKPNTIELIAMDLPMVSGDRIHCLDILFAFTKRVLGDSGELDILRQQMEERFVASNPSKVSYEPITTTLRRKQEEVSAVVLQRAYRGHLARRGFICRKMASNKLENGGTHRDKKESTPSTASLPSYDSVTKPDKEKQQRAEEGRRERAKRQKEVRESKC

Sodium channel protein type 8 subunit alpha, sequence (O88420 whole entry): as above

| Compound | IC50 [1] | inhibition [2] |
| --- | --- | --- |
| O=C(Cn1cc(CCCOc2ccccc2)nn1)c1ccccc1 | 53.6 µM | 22.7% |
| c1ccc(Cn2cc(-c3ccccc3)nn2)cc1 | 125 µM | 10% |
| c1ccc(OCc2cn(-c3ccccc3)nn2)cc1 | 28.5 µM | 16% |
| c1ccc(CCn2cc(CCCOc3ccccc3)nn2)cc1 | 52 µM | 22.7% |
| c1ccc(CCn2cc(COc3ccccc3)nn2)cc1 |  | 8.9% |
| c1ccc(-c2cn(-c3ccccc3)nn2)cc1 |  | 6.2% |
| c1ccc(-c2c[nH]c(-c3ccccc3)n2)cc1 |  | 16% |
| c1ccc(Cn2cc(CCCOc3ccccc3)nn2)cc1 | 31.7 µM | 26% |
| COc1ccc(-c2nc(-c3ccccc3)c[nH]2)cc1 | 19.6 µM | 21.7% |
| c1ccc(Cn2cc(COc3ccccc3)nn2)cc1 |  | 11% |
| O=C(Cn1cc(COc2ccccc2)nn1)c1ccccc1 |  | 13.6% |
| c1ccc(OCCCc2cn(-c3ccccc3)nn2)cc1 |  | 5.9% |
| O=C(Cn1cc(-c2ccccc2)nn1)c1ccccc1 |  | 3.9% |
| c1ccc(CCn2cc(-c3ccccc3)nn2)cc1 |  | 11.5% |
